Data reported in patent US11946064B2, “Compositions and therapeutic methods of microRNA gene delivery” (The Brigham and Women's Hospital, Inc., priority 2018, dated 2024).

Test system: glioblastoma initiating cells (GICs)
Assay: survival of mice implanted intracranially with GICs and treated with TMZ
Type: in vivo, athymic nude mice
Settings: control cells; intraperitoneal TMZ 20 mg/Kg/day for 5 days
Description: FIGS. 6A-6F illustrates the effect of clustered microRNAs on GBM cells treated with TMZ or irradiation. […] Dotted lines represent animals treated with TMZ. Different line colors represent the different overexpressed clusters.
Furthermore, in an in vivo model, mice were intracranially implanted with glioblastoma initiating cells (GICs) expressing either control vector, Cluster 3 or Cluster 5 vector and treated with intraperitoneal TMZ injections (20 mg/Kg/day for 5 days).

In the case of `Cn1nnc2c(C(N)=O)ncn2c1=O` [TMZ, temozolomide], the survival benefit is reported as roughly 40%.
